{
  "source": "patent US12194044B2",
  "about": "“Organic compounds” (priority 2016, dated 2025)",
  "key": {"[1]": {"assay": "Pharmacokinetics in rats, PO and IV cross-over, plasma parent and metabolite AUC", "assay_type": "in vivo", "details": "male, Sprague-Dawley, rat", "procedure": "The pharmacokinetics of each compound is determined after both oral (PO) and intravenous (IV) administration in cross-over studies in rats.\nPO Administration: Six male Sprague-Dawley rats are divided into two 3-rat groups for PO administration of compound on day 1 of the study. […] Blood samples are collected at 0.25, 0.5, 1, 2, 4, 6, 8, 12 and 24-hours post dose and analyzed for plasma concentration of the administered compound and its metabolites.\nIV Administration: Six male Sprague-Dawley rats are divided into two 3-rat groups for IV administration of compound on day 1 of the study. […] Blood samples are collected at 2 minutes, 5 minutes, 0.25, 0.5, 2, 4, 6, 8 and 12 hours post dose and analyzed for plasma concentration of the administered compound and its metabolites.\n(§1) All blood samples are processed to plasma and analyzed for parent and metabolite concentrations using liquid chromatography-tandem mass spectrometry (LC-MS/MS). The metabolites analyzed include the N-demethylated amide compound Q-1 (discussed supra). Area under the curve (AUC) of parent and metabolites based on plasma versus time data are calculated using Prism 5.04 software (GraphPad Software, Inc.)."}, "[2]": {"assay": "Pharmacokinetics in dogs, SL and SC, plasma parent and metabolite AUC", "assay_type": "in vivo, beagle dogs", "details": "dog", "procedure": "The pharmacokinetics of each compound is determined after both sublingual (SL) and subcutaneous (SC) administration in non-cross over sequential studies in dogs.\nSC Administration: Six male beagle dogs between 2 and 5 years of age are randomized in two groups of three dogs each. […] Dogs in group 2 are administered the compound of Example 2 at a dose of 1 mg/kg (free base equivalent) in a 0.5% methylcellulose/distilled water vehicle. Administration is subcutaneous in the intrascapular region via a 22 or 23 gauge needle. Whole blood samples are collected via the dog's cephalic vein pre-dose, and at post-dose time-points 5, 15 and 30 minutes, 1, 2, 4, 6, 8 and 24 hours. Following a minimum 7-day washout period, the dogs are transferred to the sublingual portion of the study.\nDogs in group 2 are administered the compound of Example 2 at a dose of 1 mg/kg (free base equivalent) in a 0.5% methylcellulose/distilled water vehicle. The animals are anesthetized prior to administration of the dose using propofol (6 mg/kg) and anesthesia is maintained for 30 minutes using 3-4.5% isoflurane. Administration is sublingual and the dosage is applied for 30 minutes, then wiped off using unwoven gauze. Whole blood samples are collected via the dog's cephalic vein pre-dose, and at post-dose time-points 5, 15 and 30 minutes, 1, 2, 4, 6, 8, 24, 36 and 48 hours.\nas §1, with “The metabolites analyzed include the N-demethylated amide compound Q-1 (discussed supra).” left out"}, "Serotonin 5-HT2A [3]": {"target": "T1, Serotonin 5-HT2A (Homo sapiens, UniProt P28223)", "T1 sequence (P28223 whole entry)": "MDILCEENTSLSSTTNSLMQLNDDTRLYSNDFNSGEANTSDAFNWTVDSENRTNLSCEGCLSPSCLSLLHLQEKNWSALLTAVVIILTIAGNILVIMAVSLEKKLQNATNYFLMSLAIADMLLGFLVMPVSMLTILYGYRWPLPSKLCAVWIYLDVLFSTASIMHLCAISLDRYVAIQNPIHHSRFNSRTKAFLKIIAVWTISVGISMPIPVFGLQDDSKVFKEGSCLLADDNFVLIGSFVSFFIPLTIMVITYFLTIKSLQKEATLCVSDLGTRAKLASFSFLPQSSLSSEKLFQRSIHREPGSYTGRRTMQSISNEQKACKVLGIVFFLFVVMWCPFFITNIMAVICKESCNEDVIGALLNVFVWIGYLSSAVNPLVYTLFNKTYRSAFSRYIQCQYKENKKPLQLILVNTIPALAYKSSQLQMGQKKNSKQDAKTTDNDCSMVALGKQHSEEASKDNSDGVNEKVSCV", "assay": "biochemical"}, "Serotonin Transporter": {"target": "Serotonin Transporter (Homo sapiens, UniProt P31645)", "sequence (P31645 whole entry)": "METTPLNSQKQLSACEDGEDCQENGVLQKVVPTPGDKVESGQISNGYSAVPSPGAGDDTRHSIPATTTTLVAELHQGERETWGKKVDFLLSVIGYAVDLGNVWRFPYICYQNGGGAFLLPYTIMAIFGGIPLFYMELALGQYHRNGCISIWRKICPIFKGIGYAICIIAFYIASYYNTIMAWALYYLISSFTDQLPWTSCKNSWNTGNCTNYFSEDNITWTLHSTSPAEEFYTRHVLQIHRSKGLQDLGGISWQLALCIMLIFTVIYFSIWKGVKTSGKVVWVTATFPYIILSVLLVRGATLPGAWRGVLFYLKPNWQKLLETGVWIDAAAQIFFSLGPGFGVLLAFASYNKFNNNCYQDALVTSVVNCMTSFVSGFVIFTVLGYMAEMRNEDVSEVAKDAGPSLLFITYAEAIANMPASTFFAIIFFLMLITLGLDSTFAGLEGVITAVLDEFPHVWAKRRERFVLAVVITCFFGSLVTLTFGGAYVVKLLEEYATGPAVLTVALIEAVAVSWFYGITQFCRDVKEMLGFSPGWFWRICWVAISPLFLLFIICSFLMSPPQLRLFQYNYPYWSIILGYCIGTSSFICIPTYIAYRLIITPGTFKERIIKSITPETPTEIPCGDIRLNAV", "assay": "Receptor activity Ki, serotonin transporter", "assay_type": "binding"}, "Dopamine D2": {"target": "Dopamine D2 (Homo sapiens, UniProt P14416)", "sequence (P14416 whole entry)": "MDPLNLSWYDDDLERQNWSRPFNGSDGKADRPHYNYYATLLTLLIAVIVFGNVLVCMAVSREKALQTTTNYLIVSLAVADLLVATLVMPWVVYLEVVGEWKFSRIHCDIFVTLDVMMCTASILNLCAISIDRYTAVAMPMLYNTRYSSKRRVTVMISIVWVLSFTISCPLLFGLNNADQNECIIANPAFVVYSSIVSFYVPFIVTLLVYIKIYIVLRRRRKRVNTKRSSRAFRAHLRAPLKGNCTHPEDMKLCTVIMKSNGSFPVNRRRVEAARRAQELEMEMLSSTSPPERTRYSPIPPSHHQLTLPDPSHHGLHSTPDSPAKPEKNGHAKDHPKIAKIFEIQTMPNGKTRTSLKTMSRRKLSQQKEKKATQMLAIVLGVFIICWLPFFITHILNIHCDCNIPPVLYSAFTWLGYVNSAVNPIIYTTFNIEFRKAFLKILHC", "assay": "Receptor activity Ki, dopamine D2", "assay_type": "binding"}, "Dopamine D1": {"target": "Dopamine D1 (Homo sapiens, UniProt P21728)", "sequence (P21728 whole entry)": "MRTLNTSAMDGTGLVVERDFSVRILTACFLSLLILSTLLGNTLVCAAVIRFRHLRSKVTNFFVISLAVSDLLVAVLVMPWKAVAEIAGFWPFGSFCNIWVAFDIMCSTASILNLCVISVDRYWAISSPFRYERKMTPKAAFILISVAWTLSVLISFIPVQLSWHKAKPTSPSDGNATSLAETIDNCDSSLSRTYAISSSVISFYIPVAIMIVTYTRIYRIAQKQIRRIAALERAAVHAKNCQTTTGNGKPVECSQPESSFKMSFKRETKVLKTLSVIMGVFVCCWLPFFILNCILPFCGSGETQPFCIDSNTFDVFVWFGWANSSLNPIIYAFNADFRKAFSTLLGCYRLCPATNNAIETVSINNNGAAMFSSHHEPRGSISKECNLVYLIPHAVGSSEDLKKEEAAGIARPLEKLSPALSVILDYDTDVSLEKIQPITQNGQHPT", "assay": "Receptor activity Ki, dopamine D1", "assay_type": "binding"}, "[4]": {"assay": "Measurement of parent and amide metabolite levels in mice after single oral dose", "assay_type": "in vivo", "details": "for extent of amide formation compared to compound Q after normalizing for internal standard: normalized to internal standard", "procedure": "The compound of Comparative Example 4 is used as an internal standard in each study in order to control for differences in the inherent rate of metabolism in each study's animal group. […] The maximum concentration, time to maximum concentration, and Area Under the Curve (AUC) for both the parent and the major amide metabolite is determined. […] Relative Amide Formation is thus calculated as follows for each Example X (i.e., Ex. 1, Ex. 2, Ex. 3 and Ex. Q): [formula]"}, "[5]": {"system": "serotonin receptor (e.g., 5-HT2A), dopamine receptor (e.g., D2) and serotonin transporter", "assay": "Receptor binding studies, binding profile compared to Formula Q"}, "Serotonin 5-HT2A [6]": {"target": "T1, Serotonin 5-HT2A", "assay": "Receptor binding studies, inhibition of human serotonin 5-HT2A receptor", "details": "read-out: inhibition of the human serotonin 5-HT2A receptor"}},
  "data": [
    {"smiles": "CN1CCN2c3c(cccc31)[C@@H]1CN(CCCC(=O)c3ccc(F)cc3)CC[C@@H]12", "note": "[Formula Q, 4-((6bR,10aS)-3-methyl-2,3,6b,9,10,10a-hexahydro-1H-pyrido[3′,4′: 4,5]pyrrolo[1,2,3-de]quinoxalin-8(7H)-yl)-1-(4-fluorophenyl)-1-butanone, reference compound]", "values": [
      {"measurement": "AUC", "setting": "[1]; iv, 1 mg/kg", "result": 231, "unit": "ng·h/mL"},
      {"measurement": "AUC", "setting": "[1]; po, 10 mg/kg", "result": 56, "unit": "ng·h/mL"},
      {"measurement": "less net AUC of parent compound, SL compared to SC administration", "setting": "[2]; SL vs SC", "result": 10, "unit": "%"}
    ]},
    {"smiles": "O=C(CCCN1CC[C@H]2[C@@H](C1)c1cccc3c1N2CCN3)c1ccc(F)cc1", "note": "[Example Q-1A]", "values": [
      {"measurement": "Ki", "setting": "Serotonin 5-HT2A [3]", "result": 2, "unit": "nM"},
      {"measurement": "Ki", "setting": "Serotonin Transporter", "result": "31 to 78", "unit": "nM"},
      {"measurement": "Ki", "setting": "Dopamine D2", "result": 30, "unit": "nM"},
      {"measurement": "Ki", "setting": "Dopamine D1", "result": 110, "unit": "nM"}
    ]},
    {"smiles": "[2H]C1([2H])CN2c3c(cccc3N1C)[C@@H]1CN(CCCC(=O)c3ccc(F)cc3)CC[C@@H]12", "note": "(stereo in doubt) [Example 2, 2,2-D2-1-(4-fluorophenyl)-4-((6bR,10aS)-3-methyl-2,3,6b,7,10,10a-hexahydro-1H-pyrido[3′,4′:4,5]pyrrolo[1,2,3-de]quinoxalin-8(9H)-yl)butan-1-one]", "values": [
      {"measurement": "AUC", "setting": "[1]; iv, 1 mg/kg", "result": 257, "unit": "ng·h/mL"},
      {"measurement": "AUC", "setting": "[1]; po, 10 mg/kg", "result": 58.5, "unit": "ng·h/mL"},
      {"measurement": "extent of conversion of the parent compound to the amide metabolite compared to Formula Q", "setting": "[4]", "result": "considerably lower"},
      {"measurement": "extent of amide formation compared to compound Q after normalizing for internal standard", "setting": "[4]", "result": "significantly lower"},
      {"measurement": "receptor binding profile compared to Formula Q", "setting": "[5]", "result": "substantially the same receptor binding profile"},
      {"measurement": "inhibition at 0.1 µM", "setting": "Serotonin 5-HT2A [6]", "result": 98, "unit": "%"},
      {"measurement": "higher parent AUC compared to dosing of Formula Q", "setting": "[2]; SL dosing", "result": "about 72%"},
      {"measurement": "higher parent AUC for SL compared to SC", "setting": "[2]; SL vs SC", "result": 61, "unit": "%"}
    ]},
    {"smiles": "[2H]C([2H])([2H])N1c2cccc3c2N(CC1([2H])[2H])[C@H]1CCN(CCCC(=O)c2ccc(F)cc2)C[C@@H]31", "note": "[Example 3, 2,2-D2-1-(4-fluorophenyl)-4-((6bR,10aS)-3-methyl-d3-2,3,6b,7,10,10a-hexahydro-1H-pyrido[3′,4′:4,5]pyrrolo[1,2,3-de]quinoxalin-8(9H)-yl)butan-1-one p-toluenesulfonate]", "values": [
      {"measurement": "extent of conversion of the parent compound to the amide metabolite compared to Formula Q", "setting": "[4]", "result": "considerably lower"},
      {"measurement": "extent of amide formation compared to compound Q after normalizing for internal standard", "setting": "[4]", "result": "significantly lower"},
      {"measurement": "receptor binding profile compared to Formula Q", "setting": "[5]", "result": "substantially the same receptor binding profile"}
    ]},
    {"smiles": "O=C1CN2c3c(cccc3[C@@H]3CN(CCCC(=O)c4ccc(F)cc4)CC[C@@H]32)N1", "note": "[Example Q-1]", "values": [
      {"measurement": "Ki", "setting": "Serotonin Transporter", "result": "> 600", "unit": "nM"},
      {"measurement": "Ki", "setting": "Dopamine D2", "result": "50 to 250", "unit": "nM"}
    ]},
    {"smiles": "[2H]C([2H])([2H])N1CCN2c3c(cccc31)[C@@H]1CN(CCCC(=O)c3ccc(F)cc3)CC[C@@H]12", "note": "[Example 1, 1-(4-Fluorophenyl)-4-((6bR,10aS)-3-methyl-d3-2,3,6b,7,10,10a-hexahydro-1H-pyrido[3′,4′:4,5]pyrrolo[1,2,3-de]quinoxalin-8(9H)-yl)butan-1-one p-toluenesulfonate]", "values": [
      {"measurement": "extent of conversion of the parent compound to the amide metabolite compared to Formula Q", "setting": "[4]", "result": "considerably lower"},
      {"measurement": "extent of amide formation compared to compound Q after normalizing for internal standard", "setting": "[4]", "result": "significantly lower"},
      {"measurement": "receptor binding profile compared to Formula Q", "setting": "[5]", "result": "substantially the same receptor binding profile"}
    ]}
  ]
}
